Assays:
[1] = test system: parathyroid hormone; assay: Regulating action of small doses of buserelin on parathyroid hormone in the plasma of rats; format: in vivo; conditions: young female rats with a high level of parathyroid hormone
Text: Increased levels of parathyroid hormone are found in bone marrow in cases of osteoporosis (Klin. Wochenschr. 62, 129-132, 1984); parathyroid hormone has an osteolytic effect. In young female rats with a high level of parathyroid hormone, small doses of the gonadoliberin agonist buserelin reduced parathyroid hormone in the plasma, although a parathyroid hormone level which has been reduced by infusion of calcium is raised by similar doses of buserelin (see German Patent Application No. P 33 32 329.1). It is possible that this regulating action of buserelin on parathyroid hormone plays a part in the treatment of ostalgia and osteoporosis.

[2] = test system: parathyroid hormone; conditions: after infusion of calcium; similar small doses; cited from earlier work
[3] = test system: parathyroid hormone; assay: Action of buserelin to lower parathyroid hormone in blood serum of rats; format: in vivo, female Wistar rats
Protocol: 4 groups each containing 5 female Wistar rats were treated with placebo or three different doses (1 ng/kg, 5 ng/kg and 50 ng/kg) of buserelin. An initial blood sample was taken from all animals (initial value). Thereafter, the animals were given an injection of buserelin in physiological sodium chloride solution with the addition of 0.25% Haemaccel^R, and the placebo group was given the same amount of physiological sodium chloride solution with the addition of 0.25% Haemaccel^R. Blood samples were taken after 90 minutes and 240 minutes. The blood serum was investigated for parathyroid hormone. […] Explanation of the FIG. 1: The time course of the PTH level after i.v. administration of 1 ng/kg buserelin (curve 1), 5 ng/kg (curve 2) and 50 ng/kg (curve 3) is shown. […] All measurements are indicated with standard deviation (n=5).

CCNC(=O)[C@@H]1CCCN1C(=O)[C@H](CCCNC(=N)N)NC(=O)[C@H](CC(C)C)NC(=O)[C@@H](COC(C)(C)C)NC(=O)[C@H](Cc1ccc(O)cc1)NC(=O)[C@H](CO)NC(=O)[C@H](Cc1c[nH]c2ccccc12)NC(=O)[C@H](Cc1cnc[nH]1)NC(=O)[C@@H]1CCC(=O)N1 [buserelin, [D-Ser(Bu^t)^6]-gonadoliberin-(1-9)-nonapeptide ethylamide]
parathyroid hormone in the plasma [1]: reduced
parathyroid hormone level previously reduced by infusion of calcium [2]: raised
dose dependence of the parathyroid hormone lowering effect ([3]; 1, 5 and 50 ng/kg i.v., 90 minutes): best effect being observed at the low doses
level of parathyroid hormone in blood serum after 90 minutes ([3]; i.v. 1 ng/kg, 5 ng/kg and 50 ng/kg buserelin, female Wistar rats, 90 minutes, n=5): decreased
level of parathyroid hormone in blood serum after 240 minutes ([3]; i.v. 1, 5 and 50 ng/kg, 240 minutes): initial value had been regained

Source: patent US4788178A, “Use of gonadoliberin and gonadoliberin agonists for the treatment of climacteric complaints” (Hoechst Aktiengesellschaft, priority 1984, dated 1988)
